In US11559575B2, “Multi-epitopic peptide compounds and vaccines against leishmaniasis” (INSTITUT DE RECHERCHE POUR LE DEVELOPPEMENT, priority 2018, dated 2023):
“Also recorded” adds a separate entry of the source.

Key:
Type in all cases: binding, human
HLA alleles of class II = assay: Affinity of epitopes for HLA alleles of class II; settings: Table 1; for Affinity for the HLA alleles of class II: H2B-1 epitopes; for Affinity HLA alleles of class II: H2B-II core epitopes
HLA alleles of class I = assay: Affinity of epitopes for HLA alleles of class I; settings: for Affinity for the HLA alleles of class I: H2B-1 epitopes; for Affinity for the HLA alleles of class I / Affinity HLA alleles of class I: Table 1; for Concatenation affinity for HLA allele of class I: LmLRAB (IA, IB, IC) epitopes, Table 2; for Affinity HLA alleles of class I: H2B-II core epitopes
Text: The multiepitopic peptide compounds (24 to 40-mer), having a high affinity with a maximized number of HLA molecules of class I and of class II, such as the affinities for the alleles HLA of class I and HLA of class II of the epitopes in the peptides of the sequences SEQ ID NO: 22, 23, 65, 66, 69, 73, 77, 96, 97, 137, 138, and 157, 185, have a high immunoprevalent potential corresponding to an optimal vaccine coverage, in particular for the populations concerned. The degree of coverage of the peptide compounds of the invention show a very high added value compared with the peptides of the prior art.

[1] = test system: HLA supertypes of class I; assay: Affinity of epitopes for HLA supertypes of class I; settings: for Affinity for the HLA supertypes of class I: H2B-1 epitopes; for Affinity for the HLA supertypes of class I / Affinity HLA supertype allele of class I: Table 1; for Affinity for HLA supertypes of class I: LmLRAB (IA, IB, IC) epitopes, Table 2; for Affinity HLA supertype allele of class I: H2B-II core epitopes
Text: HLA molecules are highly polymorphous. This is because there exist more than 2500 HLA proteins of class I (HLA-I) and more than 1000 HLA proteins of class II (HLA-II). However, some of these HLA molecules, close in sequence and in spatial conformation, may have epitopes common to the T cells. The grouping of several thousands of HLA molecules is at the present time described in a little more than 20 or so categories, referred to as “HLA supertypes” having epitopes that are very well preserved for each supertype.

MSMSHRTMK (Leishmania major) [SEQ ID NO: 12]
Affinity for the HLA alleles of class II (HLA alleles of class II): DRB1*03:01,; also recorded: DRB1*09:01,; also recorded: DRB1*11:01
Affinity for the HLA alleles of class I (HLA alleles of class I): HLA-A*11:01,; also recorded: HLA-A*31:01,; also recorded: HLA-A*03:01,; also recorded: HLA-A*68:01,; also recorded: HLA-A*30:01,; also recorded: HLA-A*33:01
Affinity for the HLA supertypes of class I [1]: HLA-A*01/HLA-; also recorded: A*03, HLA-A*03

NAQMSMMER (Leishmania major) [SEQ ID NO: 14]
Affinity for the HLA alleles of class I (HLA alleles of class I): HLA-A*68:01,; also recorded: HLA-A*33:01,; also recorded: HLA-A*31:01
Affinity for the HLA supertypes of class I [1]: HLA-A*03

NENNITGGL (MENNITGGL; Leishmania major) [SEQ ID NO: 67]
Concatenation affinity for HLA allele of class I (HLA alleles of class I): HLA-B*40:02,; also recorded: HLA-B*44:02,; also recorded: HLA-B*44:03; also recorded: HLA-B*18:01,; also recorded: HLA-B*40:01,
Affinity for HLA supertypes of class I [1]: HLA-B*44

NVYVGRSLK (Leishmania major) [SEQ ID NO: 47]
Affinity HLA alleles of class II (HLA alleles of class II): HLA-DRB5*01:01
Affinity HLA alleles of class I (HLA alleles of class I): HLA-A*03:01
Affinity HLA supertype allele of class I [1]: HLA-A*03

QMSMSHRTM (Leishmania major) [SEQ ID NO: 49]
Affinity HLA alleles of class II (HLA alleles of class II): HLA-DRB1*01:01,; also recorded: HLA-DRB4*01:01
Affinity HLA alleles of class I (HLA alleles of class I): HLA-B*15:01
Affinity HLA supertype allele of class I [1]: HLA-B*62

RFAQGEHDI (Leishmania major) [SEQ ID NO: 70]
Concatenation affinity for HLA allele of class I (HLA alleles of class I): HLA-A*2403
Affinity for HLA supertypes of class I [1]: HLA-A*24

RLPENAFVI (Leishmania major) [SEQ ID NO: 71]
Concatenation affinity for HLA allele of class I (HLA alleles of class I): HLA-A*32:01,; also recorded: HLA-A*02:06,; also recorded: HLA-A*02:11,; also recorded: HLA-A*02:12,; also recorded: HLA-A*02:16,; also recorded: HLA-A*02:19
Affinity for HLA supertypes of class I [1]: HLA-A*01,; also recorded: HLA-A*02

SLKAINAQM (Leishmania major) [SEQ ID NO: 50]
Affinity HLA alleles of class II (HLA alleles of class II): HLA-DRB1*04:01,; also recorded: HLA-DRB1*08:02,; also recorded: HLA-DRB1*09:01,; also recorded: HLA-DRB1*11:01,; also recorded: HLA-DRB1*13:02,; also recorded: HLA-DRB4*01:01
Affinity HLA alleles of class I (HLA alleles of class I): HLA-B*15:01
Affinity HLA supertype allele of class I [1]: HLA-B*62

SMSHRTMK (Leishmania major) [SEQ ID NO: 15]
Affinity for the HLA alleles of class I (HLA alleles of class I): HLA-A*03:01
Affinity for the HLA supertypes of class I [1]: HLA-A*03

SMSHRTMKI (Leishmania major) [SEQ ID NO: 16]
Affinity for the HLA alleles of class II (HLA alleles of class II): DRB1*07:01,; also recorded: DRB1*13:02
Affinity for the HLA alleles of class I (HLA alleles of class I): HLA-A*02:03,; also recorded: HLA-A*32:01,; also recorded: HLA-A*02:01
Affinity for the HLA supertypes of class I [1]: HLA-A*02

SMSHRTMKIK (Leishmania major) [SEQ ID NO: 17]
Affinity for the HLA alleles of class I (HLA alleles of class I): HLA-A*03:01,; also recorded: HLA-A*11:01,; also recorded: HLA-A*30:01
Affinity for the HLA supertypes of class I [1]: HLA-A*01/HLA-; also recorded: A*03, HLA-A*03

SMSHRTMKS (Leishmania major) [SEQ ID NO: 18]
Affinity for the HLA alleles of class I (HLA alleles of class I): HLA-A*02:03
Affinity for the HLA supertypes of class I [1]: HLA-A*02

SSIMVVANK (Leishmania major) [SEQ ID NO: 76]
Concatenation affinity for HLA allele of class I (HLA alleles of class I): HLA-A*30:01,; also recorded: HLA-A*03:01,; also recorded: HLA-A*11:01,; also recorded: HLA-A*31:01,; also recorded: HLA-A*68:01
Affinity for HLA supertypes of class I [1]: HLA-A*01/HLA-A*03,

TMKSMSHRT (Leishmania major) [SEQ ID NO: 20]
Affinity for the HLA alleles of class I (HLA alleles of class I): HLA-A*02:03
Affinity for the HLA supertypes of class I [1]: HLA-A*02

TQGSSKAGF (Leishmania major) [SEQ ID NO: 72]
Concatenation affinity for HLA allele of class I (HLA alleles of class I): HLA-B*15:01,; also recorded: HLA-B*15:02
Affinity for HLA supertypes of class I [1]: HLA-B*27,; also recorded: HLA-B*62
